Measurements from patent US11098032B2, “Pyran dervatives as CYP11A1 (cytochrome P450 monooxygenase 11A1) inhibitors” (ORION CORPORATION, priority 2016, dated 2021).

Target: T1, CYP11A1 (Homo sapiens, UniProt P05108)
T1 construct: human H295R adrenocortical carcinoma cell line was used as source of enzyme; endogenous in cells; host or cells: H295R human adrenocortical carcinoma cells
T1 sequence (P05108 40-521): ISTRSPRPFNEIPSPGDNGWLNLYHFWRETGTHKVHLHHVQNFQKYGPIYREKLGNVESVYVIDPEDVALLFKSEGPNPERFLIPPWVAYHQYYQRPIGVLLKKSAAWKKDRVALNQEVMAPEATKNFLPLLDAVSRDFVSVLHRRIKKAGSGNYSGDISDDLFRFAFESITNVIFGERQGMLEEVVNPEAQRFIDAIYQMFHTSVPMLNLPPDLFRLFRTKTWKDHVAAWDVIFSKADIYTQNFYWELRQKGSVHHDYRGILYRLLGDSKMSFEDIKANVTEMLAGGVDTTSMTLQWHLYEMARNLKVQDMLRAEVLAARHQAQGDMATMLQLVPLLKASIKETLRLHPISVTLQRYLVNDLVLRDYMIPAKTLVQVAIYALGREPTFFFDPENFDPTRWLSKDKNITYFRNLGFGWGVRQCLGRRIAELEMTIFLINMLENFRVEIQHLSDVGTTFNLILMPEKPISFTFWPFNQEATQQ
Experiment: CYP11A1 inhibition: modified isocaproic acid release assay (IARA) in H295R cells
Type: cell-based
Conditions: human H295R adrenocortical carcinoma cells treated three days, 3 nM [24,25-3H]-labelled cholesterol, 1% DMSO, 10 concentrations in duplicates; read-out: IC50 of the test compounds on CYP11A1 inhibition
Procedure, shortened: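 Cholesterol side-chain cleavage followed as tritiated isocaproic acid in charcoal-extracted medium, counted by scintillation. Substrate was 3 nM [24,25-3H]-cholesterol on human H295R cells exposed for three days to ten compound concentrations (duplicates, 1% DMSO); IC50 derived.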

SMILES | IC50 [µM]
CCN(CCO)S(=O)(=O)c1ccc(COc2coc(CN3Cc4ccccc4C3)cc2=O)cc1 [Compound 21, N-Ethyl-N-(2-hydroxyethyl)-4-(((6-(isoindolin-2-ylmethyl)-4-oxo-4H-pyran-3-yl)oxy)methyl)benzenesulfonamide] | < 0.15
O=c1cc(CN2Cc3ccccc3C2)occ1OCC1CN(S(=O)(=O)c2csc(Cl)c2)C1 [Compound 30, 5-((1-((5-Chlorothiophen-3-yl)sulfonyl)azetidin-3-yl)methoxy)-2-(isoindolin-2-ylmethyl)-4H-pyran-4-one] | 0.15 to 0.3
COc1ccc2c(c1)CN(Cc1cc(=O)c(OCc3ccc(C(=O)N4CC(F)(F)C4)cc3)co1)C2 [Compound 162, 5-((4-(3,3-Difluoroazetidine-1-carbonyl)benzyl)oxy)-2-((5-methoxyisoindolin-2-yl)methyl)-4H-pyran-4-one] | < 0.15
CC(C)S(=O)(=O)N1CCC(F)(COc2coc(CN3Cc4ccccc4C3)cc2=O)CC1 [Compound 236, 5-((4-Fluoro-1-(isopropylsulfonyl)piperidin-4-yl)methoxy)-2-(isoindolin-2-ylmethyl)-4H-pyran-4-one] | 0.15 to 0.3
CC(=O)OCC(=O)N1CCC(COc2coc(CN3Cc4ccccc4C3)cc2=O)CC1 [Compound 257, 2-(4-(((6-(Isoindolin-2-ylmethyl)-4-oxo-4H-pyran-3-yl)oxy)methyl)piperidin-1-yl)-2-oxoethyl acetate] | < 0.15
CS(=N)(=O)c1ccc(COc2coc(CN3Cc4ccc(OC(F)(F)F)cc4C3)cc2=O)cc1 (stereo not shown) [Compound 90, 5-((4-(S-Methylsulfonimidoyl)benzyl)oxy)-2-((5-(trifluoromethoxy)isoindolin-2-yl)methyl)-4H-pyran-4-one] | < 0.15
N#Cc1ccc(COc2coc(CN3CCc4ccccc4C3)cc2=O)cc1 [Compound 41, 4-(((6-((3,4-Dihydroisoquinolin-2(1H)-yl)methyl)-4-oxo-4H-pyran-3-yl)oxy)-methyl)benzonitrile] | 0.301 to 2
O=c1cc(CN2Cc3ccccc3C2)occ1OCC1CCS(=O)(=O)CC1 [Compound 35, 5-((1,1-Dioxidotetrahydro-2H-thiopyran-4-yl)methoxy)-2-(isoindolin-2-yl-methyl)-4H-pyran-4-one] | 0.301 to 2
O=c1cc(CN2Cc3ccccc3C2)occ1OC[C@H]1CC[C@H](N2CCCS2(=O)=O)CC1 [Compound 216, 5-(((1r,4r)-4-(1,1-Dioxidoisothiazolidin-2-yl)cyclohexyl)methoxy)-2-(isoindolin-2-ylmethyl)-4H-pyran-4-one] | < 0.15
CS(=O)(=O)N1CCC(COc2coc(CN3Cc4ccc(F)cc4C3)cc2=O)CC1 [Compound 186, 2-((5-Fluoroisoindolin-2-yl)methyl)-5-((1-(methylsulfonyl)piperidin-4-yl)-methoxy)-4H-pyran-4-one] | < 0.15
CS(=O)(=O)c1ccc(COc2coc(CN3Cc4ccccc4C3)cc2=O)c(Cl)c1 [Compound 16, 5-((2-Chloro-4-(methylsulfonyl)benzyl)oxy)-2-(isoindolin-2-ylmethyl)-4H-pyran-4-one] | 0.301 to 2
COc1ccc(COc2coc(CN3Cc4ccccc4C3)cc2=O)cn1 [Compound 76, 2-(Isoindolin-2-ylmethyl)-5-((6-methoxypyridin-3-yl)methoxy)-4H-pyran-4-one] | 0.301 to 2
CC(C)CS(=O)(=O)N1CCC(COc2coc(CN3Cc4ccccc4C3)cc2=O)CC1 [Compound 271, 5-((1-(Isobutylsulfonyl)piperidin-4-yl)methoxy)-2-(isoindolin-2-ylmethyl)-4H-pyran-4-one] | < 0.15
CS(=O)(=O)c1ccc(COc2coc(CN3Cc4cccc(Cl)c4C3)cc2=O)cc1 [Compound 281, 2-((4-Chloroisoindolin-2-yl)methyl)-5-((4-(methylsulfonyl)benzyl)oxy)-4H-pyran-4-one] | 0.301 to 2
COC(=O)c1ccc(COc2coc(CN3Cc4ccccc4C3)cc2=O)cc1 [Compound 60, Methyl 4-(((6-(isoindolin-2-ylmethyl)-4-oxo-4H-pyran-3-yl)oxy)methyl)benzoate] | 0.301 to 2

The remaining lines, values ahead:

IC50 [µM] | SMILES
< 0.15 | CCC(=O)N1CCC(COc2coc(CN3Cc4ccc(F)cc4C3)cc2=O)CC1 [Compound 224, 2-((5-Fluoroisoindolin-2-yl)methyl)-5-((1-propionylpiperidin-4-yl)methoxy)-4H-pyran-4-one]
0.301 to 2 | CN(C)C(=O)N1CCC(COc2coc(CN3Cc4ccccc4C3)cc2=O)C1 (stereo not shown) [Compound 183, 3-(((6-(Isoindolin-2-ylmethyl)-4-oxo-4H-pyran-3-yl)oxy)methyl)-N,N-dimethyl-pyrrolidine-1-carboxamide]
< 0.15 | CS(=O)(=O)N(C1CCC(COc2coc(CN3Cc4ccccc4C3)cc2=O)CC1)C1CC1 (stereo not shown) [Compound 219, N-Cyclopropyl-N-(4-(((6-(isoindolin-2-ylmethyl)-4-oxo-4H-pyran-3-yl)oxy)-methyl)cyclohexyl)methanesulfonamide]
< 0.15 | O=C(C1CCC(COc2coc(CN3Cc4ccccc4C3)cc2=O)CC1)N1CCC1 (stereo not shown) [Compound 234, 5-((4-(Azetidine-1-carbonyl)cyclohexyl)methoxy)-2-(isoindolin-2-ylmethyl)-4H-pyran-4-one]
0.301 to 2 | O=c1cc(CN2Cc3ccccc3C2)occ1OCc1ccc(C(F)(F)F)nc1 [Compound 75, 2-(Isoindolin-2-ylmethyl)-5-((6-(trifluoromethyl)pyridin-3-yl)methoxy)-4H-pyran-4-one]
0.301 to 2 | CS(=O)(=O)c1ccc(COc2coc(CN3Cc4ccccc4C3)cc2=O)cc1F [Compound 17, 5-((3-Fluoro-4-(methylsulfonyl)benzyl)oxy)-2-(isoindolin-2-ylmethyl)-4H-pyran-4-one]
0.301 to 2 | CC1c2ccccc2CCN1Cc1cc(=O)c(OCc2ccc(C(=O)N3CCCC3)cc2)co1 (stereo not shown) [Compound 125, 2-((1-Methyl-3,4-dihydroisoquinolin-2(1H)-yl)methyl)-5-((4-(pyrrolidine-1-carbonyl)benzyl)oxy)-4H-pyran-4-one]
0.15 to 0.3 | O=c1cc(CN2Cc3ccccc3C2)occ1OCc1ccc(-c2ccccn2)cc1 [Compound 165, 2-(Isoindolin-2-ylmethyl)-5-((4-(pyridin-2-yl)benzyl)oxy)-4H-pyran-4-one]
< 0.15 | CS(=O)(=O)N1CCC(COc2coc(CN3Cc4ccccc4C3)cc2=O)CC1 [Compound 185, 2-(Isoindolin-2-ylmethyl)-5-((1-(methylsulfonyl)piperidin-4-yl)methoxy)-4H-pyran-4-one]
0.301 to 2 | CNC(=O)/C=C/c1ccc(COc2coc(CN3CCc4ccccc4C3)cc2=O)cc1 [Compound 148, (E)-3-(4-(((6-((3,4-Dihydroisoquinolin-2(1H)-yl)methyl)-4-oxo-4H-pyran-3-yl)oxy)methyl)phenyl)-N-methylacrylamide]
< 0.15 | CN(C)C(=O)c1cc(F)c(COc2coc(CN3Cc4ccccc4C3)cc2=O)c(F)c1 [Compound 172, 3,5-Difluoro-4-(((6-(isoindolin-2-ylmethyl)-4-oxo-4H-pyran-3-yl)oxy)methyl)-N,N-dimethylbenzamide]
< 0.15 | N#CCS(=O)(=O)N1CCC(COc2coc(CN3Cc4ccccc4C3)cc2=O)CC1 [Compound 254, 2-((4-(((6-(Isoindolin-2-ylmethyl)-4-oxo-4H-pyran-3-yl)oxy)methyl)piperidin-1-yl)sulfonyl)acetonitrile]
< 0.15 | CN(C)C(=O)c1ccc(COc2coc(CN3Cc4ccc(Cl)cc4C3)cc2=O)cc1 [Compound 137, 4-(((6-((5-Chloroisoindolin-2-yl)methyl)-4-oxo-4H-pyran-3-yl)oxy)methyl)-N,N-dimethylbenzamide]
< 0.15 | CN=S(C)(=O)c1ccc(COc2coc(CN3Cc4ccccc4C3)cc2=O)cc1 (stereo not shown) [Compound 92, 5-((4-(N,S-Dimethylsulfonimidoyl)benzyl)oxy)-2-(isoindolin-2-ylmethyl)-4H-pyran-4-one]
< 0.15 | CS(=N)(=O)c1ccc(COc2coc(CN3Cc4ccc(C(F)(F)F)cc4C3)cc2=O)cc1 (stereo not shown) [Compound 89, 5-((4-(S-Methylsulfonimidoyl)benzyl)oxy)-2-((5-(trifluoromethyl)isoindolin-2-yl)methyl)-4H-pyran-4-one]
0.301 to 2 | C#CCNC(=O)c1ccc(COc2coc(CN3Cc4ccccc4C3)cc2=O)cc1 [Compound 141, 4-(((6-(Isoindolin-2-ylmethyl)-4-oxo-4H-pyran-3-yl)oxy)methyl)-N-(prop-2-yn-1-yl)benzamide]
< 0.15 | O=c1cc(CN2Cc3ccccc3C2)occ1OCc1ccc(S(=O)(=O)NCCO)cc1 [Compound 15, N-(2-Hydroxyethyl)-4-(((6-(isoindolin-2-ylmethyl)-4-oxo-4H-pyran-3-yl)-oxy)methyl)benzenesulfonamide]
< 0.15 | O=c1cc(CN2Cc3ccc(C(F)(F)F)cc3C2)occ1OCc1ccc(C2(O)COC2)cc1 [Compound 116, 5-((4-(3-Hydroxyoxetan-3-yl)benzyl)oxy)-2-((5-(trifluoromethyl)isoindolin-2-yl)methyl)-4H-pyran-4-one]
0.301 to 2 | CS(=O)(=O)N1CCC(COc2coc(CN3Cc4ccc([N+](=O)[O-])cc4C3)cc2=O)CC1 [Compound 207, 5-((1-(Methylsulfonyl)piperidin-4-yl)methoxy)-2-((5-nitroisoindolin-2-yl)methyl)-4H-pyran-4-one]
